PMC9090415, “Discovery of small molecule inhibitors of Plasmodium falciparum apicoplast DNA polymerase” (Journal of Enzyme Inhibition and Medicinal Chemistry, 2022)
pIC50: −log10 of the molar value.

Target: P. falciparum apicoplast DNA polymerase (Pf-apPOL) (Plasmodium falciparum, UniProt Q8ILY1)
Assay: Fluorescence-based high-throughput DNA polymerase assay (molecular beacon), primary screen and dose-response;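 for % inhibition ApPOL 90': test concentration in µM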;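 for % inhibition apPOL 180': test concentration in µM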
Format: biochemical
Procedure, shortened: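 Single-point screening used 10 µM compound with 20 nM polymerase, 20 nM hairpin substrate and 6 µM dNTPs for 90 min at 25 °C. Confirmatory titrations (2.5–80 µM) followed fluorescence at three times, and IC50 was derived from a fit including a cooperativity term n.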

[1] = primary screen value of the 186 hits; unit not given; 90 min, 10 µM
[2] = supplemental file 2, sheet IC50 nontoxic compounds; Pf-apPOL
[3] = DRC-2, 40', concentration 10 (unit not given)
[4] = DRC-2, 90', concentration 5 (unit not given)
[5] = DRC-2; 5'; concentration 5 (unit not given)

P. falciparum apicoplast DNA polymerase (Pf-apPOL), sequence (Q8ILY1 entry or part of it): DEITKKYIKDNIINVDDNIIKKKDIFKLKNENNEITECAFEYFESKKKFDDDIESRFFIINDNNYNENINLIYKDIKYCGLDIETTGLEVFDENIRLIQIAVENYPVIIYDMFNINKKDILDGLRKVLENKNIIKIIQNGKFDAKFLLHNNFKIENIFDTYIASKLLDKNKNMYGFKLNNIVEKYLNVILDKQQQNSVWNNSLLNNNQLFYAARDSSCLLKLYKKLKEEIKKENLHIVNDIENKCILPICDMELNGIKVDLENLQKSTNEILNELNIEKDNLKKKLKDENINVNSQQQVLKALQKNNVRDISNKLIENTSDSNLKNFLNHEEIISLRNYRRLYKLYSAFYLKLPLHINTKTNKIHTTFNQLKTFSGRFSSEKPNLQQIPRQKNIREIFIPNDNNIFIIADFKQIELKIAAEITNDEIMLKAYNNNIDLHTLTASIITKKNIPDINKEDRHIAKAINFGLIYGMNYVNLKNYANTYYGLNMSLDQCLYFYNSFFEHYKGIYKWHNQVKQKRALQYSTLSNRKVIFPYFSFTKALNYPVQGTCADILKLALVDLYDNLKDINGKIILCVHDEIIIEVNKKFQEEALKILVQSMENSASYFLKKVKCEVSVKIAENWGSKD

O=C(Cc1cccs1)N1CCN(c2nc(CN3CCOCC3)cs2)CC1 [Molecule 35, O=C(N1CCN(CC1)c1scc(n1)CN1CCOCC1)Cc1cccs1]
% inhibition Apo pol 10' (DRC-1; concentration 2.5; 10'): -2.34%
% inhibition Apol 90' (DRC-1; concentration 2.5; 90'): -6%
% inhibition apPOL 180' (DRC-1; concentration 2.5; 180'): -10%
% inhibition Apo pol 10' (DRC-1; concentration 5; 10'): 14%
% inhibition Apol 90' (DRC-1; concentration 5; 90'): 6.43%
% inhibition apPOL 180' (DRC-1; concentration 5; 180'): -2.23%
% inhibition Apo pol 10' (DRC-1; concentration 10; 10'): 46%
% inhibition Apol 90' (DRC-1; concentration 10; 90'): 34%
% inhibition apPOL 180' (DRC-1; concentration 10; 180'): 19%
% inhibition Apo pol 10' (DRC-1; concentration 20; 10'): 76%
% inhibition Apol 90' (DRC-1; concentration 20; 90'): 68%
% inhibition apPOL 180' (DRC-1; concentration 20; 180'): 53%
% inhibition Apo pol 10' (DRC-1; concentration 40; 10'): 83%
% inhibition Apol 90' (DRC-1; concentration 40; 90'): 83%
% inhibition apPOL 180' (DRC-1; concentration 40; 180'): 81%
% inhibition Apo pol 10' (DRC-1; concentration 80 (unit not given); 10'): 83%
% inhibition Apol 90' (DRC-1; concentration 80; 90'): 86%
% inhibition apPOL 180' (DRC-1; concentration 80; 180'): 88%
% inhibition Apo pol 5' (DRC-2; 5'; concentration 2.5): 8%
% inhibition Apo pol 5' (DRC-2; 5'; concentration 5): 19%
% inhibition Apo pol 5' (DRC-2; 5'; concentration 10): 35%
% inhibition Apo pol 5' (DRC-2; 5'; concentration 40): 46%
% inhibition Apo pol 5' (DRC-2; 5'; concentration 80): 35%
% inhibition ApPOL 90' (DRC-2; 90'; concentration 2.5): 8%
% inhibition ApPOL 90' (DRC-2; 90'; concentration 40): 69%
% inhibition apPOL 180' (DRC-2; 180'; concentration 40): 69%
% inhibition Apo pol 5' (DRC-2; concentration 2.5; 5'): 8%
% inhibition Apol 40' (DRC-2; concentration 2.5; 40'): 9%
% inhibition ApPOL 90' (DRC-2; concentration 2.5; 90'): 8%
% inhibition apPOL 180' (DRC-2; concentration 2.5; 180'): 1.49%
% inhibition Apo pol 5' (DRC-2; concentration 5; 5'): 19%
% inhibition Apol 40' (DRC-2; concentration 5; 40'): 22%
% inhibition ApPOL 90' (DRC-2; concentration 5; 90'): 20%
% inhibition apPOL 180' (DRC-2; concentration 5; 180'): 13%
% inhibition Apo pol 5' (DRC-2; concentration 10; 5'): 35%
% inhibition Apol 40' (DRC-2; concentration 10; 40'): 43%
% inhibition ApPOL 90' (DRC-2; concentration 10; 90'): 41%
% inhibition apPOL 180' (DRC-2; concentration 10; 180'): 31%
% inhibition Apo pol 5' (DRC-2; concentration 20; 5'): 45%
% inhibition Apol 40' (DRC-2; concentration 20; 40'): 61%
% inhibition ApPOL 90' (DRC-2; concentration 20; 90'): 62%
% inhibition apPOL 180' (DRC-2; concentration 20; 180'): 56%
% inhibition Apo pol 5' (DRC-2; concentration 40; 5'): 46%
% inhibition Apol 40' (DRC-2; concentration 40; 40'): 64%
% inhibition ApPOL 90' (DRC-2; concentration 40; 90'): 69%
% inhibition apPOL 180' (DRC-2; concentration 40; 180'): 69%
% inhibition Apo pol 5' (DRC-2; concentration 80; 5'): 35%
% inhibition Apol 40' (DRC-2; concentration 80; 40'): 59%
% inhibition ApPOL 90' (DRC-2; concentration 80; 90'): 65%
% inhibition apPOL 180' (DRC-2; concentration 80; 180'): 70%
% inhibition Apo pol 10' (first dose-response set; 10'; concentration 10): 46%
% inhibition Apo pol 10' (first dose-response set; 10'; concentration 40): 83%
% inhibition Apo pol 10' (first dose-response set; 10'; concentration 80 (unit not given)): 83%
% inhibition Apol 90' (first dose-response set; 90'; concentration 40): 83%
% inhibition apPOL 180' (first dose-response set; 180'; concentration 10): 19%
DNA Pol [1]: 37
DNA Pol (primary screen value; head prints only 'DNA Pol'; 90 min, 10 µM): 37

O=C(Cc1cccs1)N1CCN(c2nc(CN3CCOCC3)cs2)CC1 [Molecule 35]
pIC50 [2]: 4.95

O=C(Cn1ccc2c(=O)[nH]ccc21)Nc1ccc(Cl)cc1 [Molecule 36, O=C(Cn1ccc2c1cc[nH]c2=O)Nc1ccc(cc1)Cl]
% inhibition Apo pol 10' (DRC-1; 10'; concentration 2.5): 6.801%
% inhibition Apo pol 10' (DRC-1; 10'; concentration 5): 22.3776%
% inhibition Apo pol 10' (DRC-1; 10'; concentration 10): 24.792%
% inhibition Apo pol 10' (DRC-1; 10'; concentration 20): 79.2996%
% inhibition Apo pol 10' (DRC-1; 10'; concentration 40): 82.0585%
% inhibition Apo pol 10' (DRC-1; 10'; concentration 80): 79.648%
% inhibition Apol 90' (DRC-1; 90'; concentration 2.5): -0.4643%
% inhibition Apol 90' (DRC-1; 90'; concentration 5): 11.3565%
% inhibition Apol 90' (DRC-1; 90'; concentration 10): 14.0157%
% inhibition Apol 90' (DRC-1; 90'; concentration 20): 73.6159%
% inhibition Apol 90' (DRC-1; 90'; concentration 40): 79.7069%
% inhibition Apol 90' (DRC-1; 90'; concentration 80): 82.9478%
% inhibition apPOL 180' (DRC-1; 180'; concentration 2.5): -6.005%
% inhibition apPOL 180' (DRC-1; 180'; concentration 5): 0.9781%
% inhibition apPOL 180' (DRC-1; 180'; concentration 10): 3.9308%
% inhibition apPOL 180' (DRC-1; 180'; concentration 20): 61.1275%
% inhibition apPOL 180' (DRC-1; 180'; concentration 40): 73.0225%
% inhibition apPOL 180' (DRC-1; 180'; concentration 80): 82.2877%
% inhibition Apo pol 5' (DRC-2, 5', concentration 10 (unit not given)): 44%
% inhibition Apo pol 5' (DRC-2, 5', concentration 20 (unit not given)): 44%
% inhibition Apol 40' [3]: 57%
% inhibition Apol 40' (DRC-2, 40', concentration 20 (unit not given)): 63%
% inhibition Apol 40' (DRC-2, 40', concentration 40 (unit not given)): 63%
% inhibition ApPOL 90' [4]: 20%
% inhibition ApPOL 90' (DRC-2, 90', concentration 10 (unit not given)): 57%
% inhibition ApPOL 90' (DRC-2, 90', concentration 40 (unit not given)): 67%
% inhibition apPOL 180' (DRC-2, 180', concentration 20 (unit not given)): 63%
% inhibition apPOL 180' (DRC-2, 180', concentration 80 (unit not given)): 67%
% inhibition Apo pol 5' (DRC-2; 5'; concentration 2.5): 0%
% inhibition Apo pol 5' (DRC-2; 5'; concentration 5): 20%
% inhibition Apo pol 5' [5]: 20%
% inhibition Apo pol 5' (DRC-2; 5'; concentration 10): 44%
% inhibition Apo pol 5' (DRC-2; 5'; concentration 20): 44%
% inhibition Apo pol 5' (DRC-2; 5'; concentration 40): 41%
% inhibition Apo pol 5' (DRC-2; 5'; concentration 80): 30%
% inhibition Apol 40' (DRC-2; 40'; concentration 2.5): -0.111%
% inhibition Apol 40' (DRC-2; 40'; concentration 5): 24%
% inhibition Apol 40' (DRC-2; 40'; concentration 10): 57%
% inhibition Apol 40' (DRC-2; 40'; concentration 20): 63%
% inhibition Apol 40' (DRC-2; 40'; concentration 40): 63%
% inhibition Apol 40' (DRC-2; 40'; concentration 80): 56%
% inhibition ApPOL 90' (DRC-2; 90'; concentration 2.5): -2%
% inhibition ApPOL 90' (DRC-2; 90'; concentration 5): 20%
% inhibition ApPOL 90' (DRC-2; 90'; concentration 10): 57%
% inhibition ApPOL 90' (DRC-2; 90'; concentration 20): 66%
% inhibition ApPOL 90' (DRC-2; 90'; concentration 40): 67%
% inhibition ApPOL 90' (DRC-2; 90'; concentration 80): 61%
% inhibition apPOL 180' (DRC-2; 180'; concentration 2.5): -7%
% inhibition apPOL 180' (DRC-2; 180'; concentration 5): 11%
% inhibition apPOL 180' (DRC-2; 180'; concentration 10): 48%
% inhibition apPOL 180' (DRC-2; 180'; concentration 20): 63%
% inhibition apPOL 180' (DRC-2; 180'; concentration 40): 69%
% inhibition apPOL 180' (DRC-2; 180'; concentration 80): 67%
DNA Pol [1]: 46
DNA Pol (primary screen value, head "DNA Pol", unit not given; 90 min, 10 µM): 46

O=C(Cn1ccc2c(=O)[nH]ccc21)Nc1ccc(Cl)cc1 [Molecule 36]
pIC50 [2]: 4.89

CCCCC(=O)N1CCc2c(nc3cc(-c4ccccc4Cl)[nH]n3c2=O)C1 [Molecule 37]
pIC50 [2]: 4.98

COc1ccc2c(c1)C(c1ccccc1OC)CC(=O)O2 (centres unmarked) [Molecule 38, COc1ccc2c(c1)C(CC(=O)O2)c1ccccc1OC]
DNA Pol ('DNA Pol' of the 186 hits list (primary screen result); unit not given; 90 min, 10 µM): 27
% inhibition Apo pol 10' (DRC-1; 10'; concentration 2.5): 10.6274%
% inhibition Apo pol 10' (DRC-1; 10'; concentration 5): 16.1295%
% inhibition Apo pol 10' (DRC-1; 10'; concentration 10): 45.2437%
% inhibition Apo pol 10' (DRC-1; 10'; concentration 20): 76.7316%
% inhibition Apo pol 10' (DRC-1; 10'; concentration 40): 94.6893%
% inhibition Apo pol 10' (DRC-1; 10'; concentration 80): 97.2345%
% inhibition Apol 90' (DRC-1; 90'; concentration 2.5): -7.663%
% inhibition Apol 90' (DRC-1; 90'; concentration 5): -2.39%
% inhibition Apol 90' (DRC-1; 90'; concentration 10): 21.9297%
% inhibition Apol 90' (DRC-1; 90'; concentration 20): 56.4964%
% inhibition Apol 90' (DRC-1; 90'; concentration 40): 89.2946%
% inhibition Apol 90' (DRC-1; 90'; concentration 80): 96.5262%
% inhibition apPOL 180' (DRC-1; 180'; concentration 2.5): -11.4597%
% inhibition apPOL 180' (DRC-1; 180'; concentration 5): -6.316%
% inhibition apPOL 180' (DRC-1; 180'; concentration 10): 13.8407%
% inhibition apPOL 180' (DRC-1; 180'; concentration 20): 46.2939%
% inhibition apPOL 180' (DRC-1; 180'; concentration 40): 87.0263%
% inhibition apPOL 180' (DRC-1; 180'; concentration 80): 96.2979%
% inhibition Apol 40' [3]: 27%
% inhibition ApPOL 90' [4]: 7%
% inhibition apPOL 180' (DRC-2, 180', concentration 5 (unit not given)): 7%
% inhibition Apo pol 5' (DRC-2; 5'; concentration 2.5): 6.5%
% inhibition Apo pol 5' (DRC-2; 5'; concentration 5): 27%
% inhibition Apo pol 5' [5]: 27%
% inhibition Apo pol 5' (DRC-2; 5'; concentration 10): 41%
% inhibition Apo pol 5' (DRC-2; 5'; concentration 20): 55%
% inhibition Apo pol 5' (DRC-2; 5'; concentration 40): 64%
% inhibition Apo pol 5' (DRC-2; 5'; concentration 80): 69%
% inhibition Apol 40' (DRC-2; 40'; concentration 2.5): -7%
% inhibition Apol 40' (DRC-2; 40'; concentration 5): 10%
% inhibition Apol 40' (DRC-2; 40'; concentration 10): 27%
% inhibition Apol 40' (DRC-2; 40'; concentration 20): 54%
% inhibition Apol 40' (DRC-2; 40'; concentration 40): 72%
% inhibition Apol 40' (DRC-2; 40'; concentration 80): 81%
% inhibition ApPOL 90' (DRC-2; 90'; concentration 2.5): -8%
% inhibition ApPOL 90' (DRC-2; 90'; concentration 5): 7%
% inhibition ApPOL 90' (DRC-2; 90'; concentration 10): 23%
% inhibition ApPOL 90' (DRC-2; 90'; concentration 20): 53%
% inhibition ApPOL 90' (DRC-2; 90'; concentration 40): 74%
% inhibition ApPOL 90' (DRC-2; 90'; concentration 80): 84%
% inhibition apPOL 180' (DRC-2; 180'; concentration 2.5): -3.79%
% inhibition apPOL 180' (DRC-2; 180'; concentration 5): 7%
% inhibition apPOL 180' (DRC-2; 180'; concentration 10): 20%
% inhibition apPOL 180' (DRC-2; 180'; concentration 20): 50%
% inhibition apPOL 180' (DRC-2; 180'; concentration 40): 75%
% inhibition apPOL 180' (DRC-2; 180'; concentration 80): 86%
DNA Pol (primary screen value of the library well; unit not given; 90 min, 10 µM): 27

COc1ccc2c(c1)C(c1ccccc1OC)CC(=O)O2 (centres unmarked) [Molecule 38]
pIC50 [2]: 4.95
